“And” between values parts separate entries of the source, which are not always exact repeats. Identical values can stand only once. Like-named read-outs stand apart in the source and are kept apart here. Positions of bridges follow the written chain, without caps; N, C: chain ends. Non-standard residues stand in square brackets, D forms with d. Residues, ends and D or L forms follow the SMILES beside them. *: point of attachment. DOTA = O=C(O)CN1CCN(CC(=O)O)CCN(CC(=O)*)CCN(CC(=O)O)CC1; Cha = N[C@@H](CC1CCCCC1)C(=O)O
How the values were obtained:
uPAR [1] = biological target: T1, uPAR (Homo sapiens, UniProt Q03405); experiment: Nano-DSF thermal stability of uPAR•peptide complexes; conditions: for Tm (apparent melting temperature of uPAR•peptide complex): 15 µM uPAR, 30 µM peptide, PBS pH 7.4, n = 3
T1 construct: Recombinant human uPAR^1–283 was expressed; made in house; host or cells: Drosophila melanogaster S2 cells
T1 sequence (Q03405 23-305): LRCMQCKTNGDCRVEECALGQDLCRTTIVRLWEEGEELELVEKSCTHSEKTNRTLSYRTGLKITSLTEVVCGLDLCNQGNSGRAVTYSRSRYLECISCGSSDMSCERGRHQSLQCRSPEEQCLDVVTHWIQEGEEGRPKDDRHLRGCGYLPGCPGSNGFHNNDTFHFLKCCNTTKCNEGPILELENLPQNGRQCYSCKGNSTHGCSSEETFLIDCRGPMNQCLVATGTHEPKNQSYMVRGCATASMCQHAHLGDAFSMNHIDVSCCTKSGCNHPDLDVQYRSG
Experimental: The thermal stability of the uPAR•peptide complexes was analyzed with Nano-DSF using a Prometheus NT.48™ (Nanotemper). uPAR (15 µM) was mixed with twofold excess of peptide (30 µM) in PBS pH 7.4 and incubated for 15 min at RT to ensure complex formation. Samples containing either 15 µM uPAR or 30 µM of each peptide were included as controls. The samples were loaded into standard capillaries and in triplicates. To unfold the proteins, the samples were exposed to an increasing temperature gradient from 20 to 95 °C with a ramping rate of 1 °C/min. The excitation power was set to 50% (Ex.280 nm) and the fluorescence emission collected at 330 nm and 350 nm. The melting temperatures of the complexes were determined in the PR.ThermControl software (Nanotemper) from the first derivative of the fluorescence ratio (350 nm/330 nm).

uPAR•uPA interaction = biological target: T2, uPAR•uPA interaction (Homo sapiens, UniProt Q03405); experiment: SPR competition assay of the uPAR•uPA interaction; assay type: binding; conditions: for IC50: competition of uPAR•uPA interaction, 2 nM uPAR, 20 °C, n = 3
T2 construct: Recombinant human uPAR^1–283 was expressed; made in house; host or cells: Drosophila melanogaster S2 cells
T2 sequence (Q03405 23-305): as above
Experimental: The IC50-values of antagonistic peptides on the uPAR•uPA interaction were determined with SPR using a Biacore T200™ or Biacore 3000™ instruments (Cytiva) essentially as described[4],[56],[77]. In brief, we immobilized high levels of pro-uPA^S356A (0.1 pmol pro-uPA/mm^2) on a CM5 sensor chip via amine coupling. The experiments were conducted by injecting 2 nM uPAR in presence of a threefold dilution series of a given antagonistic peptide for 300 s with a flow rate of 50 µL/min at 20 °C. The high immobilization levels result in binding conditions that are entirely controlled by mass transport limitations (MTL). Accordingly, the observed association rates (vobs) are directly proportional to the concentrations of binding-active uPAR in solution. To determine the IC50, we also measured a standard curve of uPAR binding (a twofold dilution series of 0.06 to 2 nM uPAR, linear due to MTL). The running buffer was 10 mM HEPES, 150 mM NaCl, 3 mM EDTA, and 0.05% (v/v) surfactant P-20 at pH 7.4, and the regeneration buffer was 0.1 M acetic acid in 0.5 M NaCl.

uPAR [2] = biological target: T1, uPAR; experiment: SPR real-time binding kinetics, peptides in solution and immobilised uPAR
Experimental: The real-time binding kinetics of uPAR•peptide interactions were measured with SPR using a Biacore T200™(Cytiva); essentially as described in[56],[77]. In brief, uPAR was covalently immobilised on a CM5 sensor chip via amine coupling resulting in a surface density of 1157–1581 RU (~ 33–44 fmol/mm^2). The binding kinetics for the peptides to immobilised uPAR were measured using a single cycle protocol. In this setup, peptides were injected as five serial two-fold dilutions with a contact time of 200 s. After the last analyte injection, the dissociation time was set to 1000 s. The sensor chip was regenerated with two consecutive injections of 0.1 M acetic acid in 0.5 M NaCl. All experiments were conducted at 20 °C with a flow rate of 50 µL/min in 10 mM HEPES, 150 mM NaCl, 3 mM EDTA, and 0.05% (v/v) surfactant P-20 at pH 7.4. The kinetic rate constants (kon and koff) were determined by non-linear regression fitting of the curves to the simple bimolecular interaction model (BiacoreT200 Evaluation™ 3.0 software).

[3] = [63Cu]-DOTA labelled peptides, single-cycle SPR
[4] = single cycle SPR, immobilised uPAR, 20 °C
[5] = single cycle SPR, immobilised uPAR, 20 °C, 1:1 model
[6] = single cycle SPR, immobilised uPAR, 20 °C, read-out: kon

CC(C)C[C@H](NC(=O)[C@H](Cc1ccc(O)cc1)NC(=O)[C@@H](CCCNC(=N)N)NC(=O)[C@@H](CO)NC(=O)[C@H](Cc1ccccc1)NC(=O)[C@H](CC1CCCCC1)NC(=O)[C@H](CC(=O)O)NC(=O)CN1CCN(CC(=O)O)CCN(CC(=O)O)CCN(CC(=O)O)CC1)C(=O)N[C@@H](Cc1c[nH]c2ccccc12)C(=O)N[C@@H](CO)C(=O)O [1b]
Tm (apparent melting temperature of uPAR•peptide complex) (uPAR [1]): 58.8 °C
IC50 of DOTA-conjugated peptide compared to unconjugated peptide (uPAR•uPA interaction; (1b) vs (1), (8b) vs (8)): four to fivefold higher
IC50 (uPAR•uPA interaction): 48 ± 2 nM
Kd (uPAR [2]; [3]): 86.5 nM
koff (uPAR [2]; [3]): 0.0175 ± 0.0003 s⁻¹
kon (uPAR [2]; [3]): 2.02 ± 0.03 105 M-1 s-1
reduction of affinity on DOTA-conjugation (uPAR [2]; real-time binding kinetics, vs unconjugated peptides): 8–11 fold
koff (uPAR [2]; [4]): 0.00557 ± 1e-05 s⁻¹
Kd (uPAR [2]; [5]): 26.9 nM
kon (uPAR [2]; [6]): 207000 ± 1000 M⁻¹ s⁻¹

CC(C)C[C@@H]1NC(=O)[C@H](Cc2ccc(O)cc2)NC(=O)[C@H](NC(=O)[C@@H](CO)NC(=O)[C@H](Cc2ccccc2)NC(=O)[C@H](CC2CCCCC2)NC(=O)[C@H](CC(=O)O)NC(=O)CN2CCN(CC(=O)O)CCN(CC(=O)O)CCN(CC(=O)O)CC2)CSSC[C@@H](C(=O)O)NC(=O)[C@H](Cc2c[nH]c3ccccc23)NC1=O [3b] ({DOTA}-D[Cha]F[dS][dC]YLWC-OH; disulfide 5-9)
Tm (apparent melting temperature of uPAR•peptide complex) (uPAR [1]): ~ 70 °C
increase in apparent Tm (uPAR [1]; DOTA-conjugated peptides, compared to (1b)): approximately 11 °C
IC50 (uPAR•uPA interaction): 10.9 ± 0.3 nM
koff (uPAR [2]; [4]): 0.0044 ± 1e-05 s⁻¹
Kd (uPAR [2]; [5]): 12.5 nM
kon (uPAR [2]; [6]): 352000 ± 1000 M⁻¹ s⁻¹

CC(C)C[C@@H]1NC(=O)[C@H](Cc2ccc(O)cc2)NC(=O)[C@H](NC(=O)[C@@H](CO)NC(=O)[C@H](Cc2ccccc2)NC(=O)[C@H](CC2CCCCC2)NC(=O)[C@H](CC(=O)O)NC(=O)CNC(=O)CNC(=O)[C@@H](CO)NC(=O)CNC(=O)[C@H](CCC(=O)O)NC(=O)[C@H](CCC(=O)O)NC(=O)CN2CCN(CC(=O)O)CCN(CC(=O)O)CCN(CC(=O)O)CC2)CSSC[C@@H](C(N)=O)NC(=O)[C@H](Cc2c[nH]c3ccccc23)NC1=O [11b] ({DOTA}-EEG[dS]GGD[Cha]F[dS][dC]YLWC-NH2; disulfide 11-15)
IC50 (uPAR•uPA interaction): 7.7 ± 0.2 nM
Kd (uPAR [2]; [3]): 22.6 nM
koff (uPAR [2]; [3]): 0.0036 ± 1e-05 s⁻¹
koff (uPAR [2]; [4]): 0.003562 ± 3e-06 s⁻¹
Kd (uPAR [2]; [5]): 5 nM and 4.97 nM
kon (uPAR [2]; [6]): 717000 ± 1000 M⁻¹ s⁻¹

CC(C)C[C@H](NC(=O)[C@H](Cc1ccc(O)cc1)NC(=O)[C@@H](CCCNC(=N)N)NC(=O)[C@@H](CO)NC(=O)[C@H](Cc1ccccc1)NC(=O)[C@H](CC1CCCCC1)NC(=O)[C@@H](N)CC(=O)O)C(=O)N[C@@H](Cc1c[nH]c2ccccc12)C(=O)N[C@@H](CO)C(=O)O [compound 1, AE105]
IC50 (uPAR•uPA interaction): 8.8 ± 0.2 nM
koff (uPAR [2]; [4]): 0.00396 ± 1e-05 s⁻¹
Kd (uPAR [2]; [5]): 2.52 nM
kon (uPAR [2]; [6]): 1.568e+06 ± 5000 M⁻¹ s⁻¹

CC(C)C[C@H](NC(=O)[C@H](Cc1ccc(O)cc1)NC(=O)[C@@H](CCCCN)NC(=O)[C@@H](CO)NC(=O)[C@H](Cc1ccccc1)NC(=O)[C@H](CC1CCCCC1)NC(=O)[C@@H](N)CC(=O)O)C(=O)N[C@@H](Cc1c[nH]c2ccccc12)C(=O)N[C@@H](CO)C(=O)O [compound 2] (H-D[Cha]F[dS][dK]YLWS-OH; N-terminus assumed)
IC50 (uPAR•uPA interaction): 50.9 ± 2 nM
koff (uPAR [2]; [4]): 0.0298 ± 0.0001 s⁻¹
Kd (uPAR [2]; [5]): 50.2 nM
kon (uPAR [2]; [6]): 594000 ± 3000 M⁻¹ s⁻¹

CC(C)C[C@@H]1NC(=O)[C@H](Cc2ccc(O)cc2)NC(=O)[C@H](NC(=O)[C@@H](CO)NC(=O)[C@H](Cc2ccccc2)NC(=O)[C@H](CC2CCCCC2)NC(=O)[C@@H](N)CC(=O)O)CSSC[C@@H](C(=O)O)NC(=O)[C@H](Cc2c[nH]c3ccccc23)NC1=O [compound 3] (H-D[Cha]F[dS][dC]YLWC-OH; disulfide 5-9; N-terminus assumed)
IC50 (uPAR•uPA interaction): 6.5 ± 0.3 nM
koff (uPAR [2]; [4]): 0.00365 ± 1e-05 s⁻¹
Kd (uPAR [2]; [5]): 3.32 nM
kon (uPAR [2]; [6]): 1.098e+06 ± 4000 M⁻¹ s⁻¹

CC(C)C[C@H](NC(=O)[C@H](Cc1ccc(O)cc1)NC(=O)[C@@H](CO)NC(=O)[C@@H](CO)NC(=O)[C@H](Cc1ccccc1)NC(=O)[C@H](CC1CCCCC1)NC(=O)[C@H](CC(=O)O)NC(=O)CNC(=O)CNC(=O)[C@@H](CO)NC(=O)CNC(=O)[C@H](CCC(=O)O)NC(=O)[C@@H](N)CCC(=O)O)C(=O)N[C@@H](Cc1c[nH]c2ccccc12)C(=O)N[C@@H](CO)C(=O)O [compound 5] (H-EEG[dS]GGD[Cha]F[dS][dS]YLWS-OH; N-terminus assumed)
fold decrease in potency (uPAR•uPA interaction; compared to (4)): 7.8 fold
koff (uPAR [2]; [4]): 0.054 ± 0.0003 s⁻¹
kon (uPAR [2]; [6]): 201000 ± 2000 M⁻¹ s⁻¹

CC(C)C[C@@H]1NC(=O)[C@@H]2CCCN2C(=O)[C@H](NC(=O)[C@@H](CO)NC(=O)[C@H](Cc2ccccc2)NC(=O)[C@H](CC2CCCCC2)NC(=O)[C@H](CC(=O)O)NC(=O)CNC(=O)CNC(=O)[C@@H](CO)NC(=O)CNC(=O)[C@H](CCC(=O)O)NC(=O)[C@@H](N)CCC(=O)O)CSSC[C@@H](C(=O)O)NC(=O)[C@H](Cc2c[nH]c3ccccc23)NC1=O [compound 7] (H-EEG[dS]GGD[Cha]F[dS][dC]PLWC-OH; disulfide 11-15 (inferred); N-terminus assumed)
KD (uPAR [2]; [5]): N.B

CC(C)C[C@H](NC(=O)[C@H](Cc1ccc(O)cc1)NC(=O)[C@@H](CCCNC(=N)N)NC(=O)[C@@H](CO)NC(=O)[C@H](Cc1ccccc1)NC(=O)[C@H](CC1CCCCC1)NC(=O)[C@@H](N)CC(=O)O)C(=O)N[C@@H](Cc1c[nH]c2ccccc12)C(=O)N[C@@H](CO)C(N)=O [compound 8]
IC50 (uPAR•uPA interaction): 2.1 ± 0.1 nM
koff (uPAR [2]; [4]): 0.000998 ± 1e-06 s⁻¹
Kd (uPAR [2]; [5]): 0.53 nM
kon (uPAR [2]; [6]): 1.89e+06 ± 3000 M⁻¹ s⁻¹

CC(C)C[C@@H]1NC(=O)[C@H](Cc2ccc(O)cc2)NC(=O)[C@H](NC(=O)[C@@H](CO)NC(=O)[C@H](Cc2ccccc2)NC(=O)[C@H](CC2CCCCC2)NC(=O)[C@@H](N)CC(=O)O)CSSC[C@@H](C(N)=O)NC(=O)[C@H](Cc2c[nH]c3ccccc23)NC1=O [compound 9] (H-D[Cha]F[dS][dC]YLWC-NH2; disulfide 5-9; N-terminus assumed)
IC50 (uPAR•uPA interaction): 8.9 ± 0.3 nM
koff (uPAR [2]; [4]): 0.002063 ± 3e-06 s⁻¹
Kd (uPAR [2]; [5]): 2.9 nM
kon (uPAR [2]; [6]): 712000 ± 2000 M⁻¹ s⁻¹

CC(C)C[C@@H]1NC(=O)[C@H](Cc2ccc(O)cc2)NC(=O)[C@H](NC(=O)[C@@H](CO)NC(=O)[C@H](Cc2ccccc2)NC(=O)[C@H](CC2CCCCC2)NC(=O)[C@H](CC(=O)O)NC(=O)CNC(=O)CNC(=O)[C@@H](CO)NC(=O)CNC(=O)[C@H](CCC(=O)O)NC(=O)[C@@H](N)CCC(=O)O)CSSC[C@@H](C(N)=O)NC(=O)[C@H](Cc2c[nH]c3ccccc23)NC1=O [compound 11] (H-EEG[dS]GGD[Cha]F[dS][dC]YLWC-NH2; disulfide 11-15; N-terminus assumed)
Tm (apparent melting temperature of uPAR•peptide complex) (uPAR [1]): ~ 65 °C
koff (uPAR [2]; [4]): 0.005015 ± 8e-06 s⁻¹
kon (uPAR [2]; [6]): 500000 ± 2000 M⁻¹ s⁻¹

— article PMC10567728, “Targeted imaging of uPAR expression in vivo with cyclic AE105 variants” (Scientific Reports, 2023)
